Measured values: US20240034742A1, “DOSING REGIMENS FOR CYCLIN-DEPENDENT KINASE 7 (CDK7) INHIBITORS” (Syros Pharmaceuticals, Inc., priority 2020, published 2024)

Experiments:
[1] = tested on: palbociclib and fulvestrant double-resistant ER+BC PDX model (ST941); experiment: Tumor growth inhibition in palbociclib and fulvestrant double-resistant ER+BC PDX model ST941; type: in vivo, mice; conditions: last day of 28 days dosing, Compound 101 6 mg/kg QD PO, fulvestrant 2.5 mg/kg weekly SC, palbociclib 50 mpk QD PO
Experimental: Tumor growth inhibition was evaluated in estrogen receptor-positive breast cancer (ER-BC) PDX models selected in vivo for resistance to the CDK4/6 inhibitor palbociclib (ST1799, […]) or resistance to both palbociclib and fulvestrant (ST941, n=1), Dosing was initiated when tumors were 100-200 mm^3.

HCC70 cell line = experiment: Inhibition of cell proliferation (CyQUANT Direct Cell Proliferation Assay); type: cell-based; conditions: Homo sapiens, 72-hour proliferation assay
Experimental: The HCC70 cell line was derived from human TNBC, and we tested representative compounds of the invention, at different concentrations (from […]; 0.5 log serial dilutions), for their ability to inhibit the proliferation of those cells. More specifically, we tested the same compounds tested above for CDK7 selectivity (the structures of which are shown in FIG. 1), and we used the known CDK inhibitors dinaciclib (or N-((1S,3R)-3-((5-chloro-4-(1H-indol-3-yl) pyrimidin-2-yl)amino)cyclohexyl)-5-((E)-4-(dimethylamino)but-2-enamido)picolinamide) and triptolide as positive controls. The cells were grown in ATCC-formulated RPMI-1640 medium (ATCC 30-2001) supplemented with 10% fetal bovine serum (FBS), at 37° C. in a humidified chamber in the presence of 5% CO2. We conducted proliferation assays over a 72-hour time period using a CyQUANT® Direct Cell Proliferation Assay (Life Technologies, Chicago, IL USA) according to the manufacturer's directions and utilizing the reagents supplied with the kit.

[2] = tested on: PDX models with oncogenic alterations in the RB pathway and MAPK pathway; experiment: Anti-tumor activity in PDX models with RB or MAPK pathway alterations; type: in vivo; conditions: well-tolerated doses; models from SCLC, TNBC, HGSOC, CRC, PDAC, NSCLC patients
[3] = tested on: patients with advanced solid tumors; experiment: Phase 1, first-in-human dose escalation study
Experimental: We focused on safety, tolerability, PK, and PD (as assessed by a PD gene expression marker, POLR2A mRNA) in a 28-day single agent continuous daily dosing regimen and a 3-week-on, I-week-off combination regimen with fulvestrant.
Safety and tolerability, including cycle-1 dose-limiting toxicities (DLTs) were evaluated. Dose-limiting toxicities were graded using the National Cancer Institute Common Toxicity Criteria for Adverse Events (NCI-CTCAE) version 5.0. Serial plasma PK and PD in peripheral blood mononuclear cells (PBMCs) were obtained on days 1 and 15 in cycle 1. […] Tumor responses were assessed per RECIST version 1.1.

[4] = tested on: ST390 (modeling pancreatic ductal adenocarcinoma (PDAC)); experiment: Tumor growth inhibition in PDAC PDX model ST390; conditions: 6 mg/kg QD PO, over the time examined (~28 days)
Experimental: (§1) In the TNBC, SCLC, and HGSOC models, tumor volume was measured during the treatment period and for an additional 21 days after treatment ceased. […] The same calculations were used for end of study (day 42).

[5] = tested on: 12 PDX models representing SCLC, TNBC and HGSOC; experiment: Tumor growth inhibition in TNBC, HGSOC and SCLC PDX models
Experimental: as §1
Dosing was initiated when tumors were 150-300 mm^3. […] TGI was calculated on the last day of dosing using the formula: TGI=(Vc1−Vt1)/(Vc0−Vt0), where Vc1 and Vt1 are the mean volumes of control and treated groups at the time of tumor extraction, while Vc0 and Vt0 are the same groups at the start of dosing.

[6] = single agent and in combination with fulvestrant

CC(=O)c1c(C)c2cnc(Nc3ccc(N4CCNCC4)cn3)nc2n(C2CCCC2)c1=O [palbociclib]
Tumor growth inhibition (TGI) [1]: no activity

CC1(C)CC[C@H](Nc2ncc(C(F)(F)F)c(-c3c[nH]c4c(P(C)(C)=O)c(C#N)ccc34)n2)CN1 [Compound 101, (S)-7-(dimethylphosphoryl)-3-(2-((6,6-dimethylpiperidin-3-yl)amino)-5-(trifluoromethyl)pyrimidin-4-yl)-1H-indole-6-carbonitrile]
EC50 (HCC70 cell line): 3.6 nM | anti-tumor activity [2]: robust anti-tumor activity | pharmacodynamics: POLR2A mRNA in PBMCs and CDK7 occupancy ([3]; 3 mg daily): induced POLR2A elevations associated with regressions in preclinical models and target levels of CDK7 occupancy in patients | dose-limiting events ([3]; cohort receiving 4 mg doses, continuous daily (Grade 3 fatigue; abdominal pain)): two | dose-limiting events ([3]; cohort receiving 5 mg doses, continuous daily (Grade 3 nausea; thrombocytopenia)): two | patients who developed an SAE (all causality) ([3]; four of 13 patients): 31% | grade of the majority of reported adverse events ([3]; in vivo): low grade | accumulation with repeated dosing [3, 6]: minimal accumulation | dose proportionality of PK [3, 6]: approximately dose proportional PK | interpatient variability of PK [3, 6]: moderate to high interpatient variability | steady state half-life [3, 6]: compatible with once daily dosing | best response (RECIST 1.1) ([3]; single agent, 3 mg daily, two patients (HR+ breast cancer, colorectal cancer)): stable disease | best response (RECIST 1.1) ([3]; single agent, 5 mg daily, one patient, esophageal cancer): stable disease | MTD ([3]; single agent, oral, continuous daily dosing cohorts): 3 mg | response (RECIST 1.1) ([3]; single agent, two patients with ovarian cancer, 1 mg and 3 mg daily): progressive disease | Tumor growth inhibition (TGI) [4]: 100% | TGI in TNBC (BR5010), SCLC (LU5178) and HGSOC (OV15398) PDX models ([5]; 10 mg/kg QD or 5 mg/kg BID (TNBC), 3 mg/kg BID (SCLC, HGSOC), PO, 21 days, plus 21 days observation): deep and sustained TGI, including regressions | TGI at the end of the 21-day dosing period in all models ([5]; 12 PDX models, 6 or 10 mg/kg QD or 3 or 5 mg/kg BID PO): at least 50% | TGI in the subset of models (58%, 7/12) with deep and sustained responses ([5]; TGI or regression, no tumor regrowth for 21 days after treatment discontinuation): > 95% | tolerability: body weight ([5]; all once-daily doses tested, tumor-bearing mice): no evident body weight loss | MTD ([5]; tumor-bearing mice): above 10 mg/kg once daily

C[C@]12CC[C@@H]3c4ccc(O)cc4C[C@@H](CCCCCCCCC[S+]([O-])CCCC(F)(F)C(F)(F)F)[C@H]3[C@@H]1CC[C@@H]2O (some centres unmarked) [fulvestrant]
Tumor growth inhibition (TGI) [1]: no activity
